Reference: ChEMBL document CHEMBL4390652, “Design, biological evaluation and X-ray crystallography of nanomolar multifunctional ligands targeting simultaneously acetylcholinesterase and glycogen synthase kinase-3” (Eur J Med Chem, 2019)

Key:
[1] = system: Tyrosine-protein kinase ABL1 (Homo sapiens), P00519 [H396P]; experiment: Binding affinity to human non-phosphorylated ABL1 H396P mutant (S229 to K512 residues) expressed in mammalian expression system assessed as residual binding level at 10 uM by Kinomescan method relative to control
[2] = target: Activin receptor type-1 (Homo sapiens) (UniProt Q04771); experiment: Binding affinity to wild-type human ACVR1 (C188 to C509 residues) expressed in bacterial expression system assessed as residual binding level at 10 uM by Kinomescan method relative to control
[3] = target: Cytoplasmic tyrosine-protein kinase BMX (Homo sapiens) (UniProt P51813); experiment: Binding affinity to wild-type human full length BMX (M1 to H675 residues) expressed in bacterial expression system assessed as residual binding level at 10 uM by Kinomescan method relative to control
[4] = target: Serine/threonine-protein kinase BRSK2 (Homo sapiens) (UniProt Q8IWQ3); experiment: Binding affinity to wild-type human full length BRSK2 (M1 to L674 residues) expressed in bacterial expression system assessed as residual binding level at 10 uM by Kinomescan method relative to control
[5] = target: Citron Rho-interacting kinase (Homo sapiens) (UniProt O14578); experiment: Binding affinity to wild-type human partial length CIT (M68 to E432 residues) expressed in bacterial expression system assessed as residual binding level at 10 uM by Kinomescan method relative to control
[6] = target: Discoidin domain-containing receptor 2 (Homo sapiens) (UniProt Q16832); experiment: Binding affinity to wild-type human partial length DDR2 (V555 to E855 residues) expressed in mammalian expression system assessed as residual binding level at 10 uM by Kinomescan method relative to control
Sequence of Discoidin domain-containing receptor 2 (Homo sapiens) (Q16832 whole entry, the tested form may be a part): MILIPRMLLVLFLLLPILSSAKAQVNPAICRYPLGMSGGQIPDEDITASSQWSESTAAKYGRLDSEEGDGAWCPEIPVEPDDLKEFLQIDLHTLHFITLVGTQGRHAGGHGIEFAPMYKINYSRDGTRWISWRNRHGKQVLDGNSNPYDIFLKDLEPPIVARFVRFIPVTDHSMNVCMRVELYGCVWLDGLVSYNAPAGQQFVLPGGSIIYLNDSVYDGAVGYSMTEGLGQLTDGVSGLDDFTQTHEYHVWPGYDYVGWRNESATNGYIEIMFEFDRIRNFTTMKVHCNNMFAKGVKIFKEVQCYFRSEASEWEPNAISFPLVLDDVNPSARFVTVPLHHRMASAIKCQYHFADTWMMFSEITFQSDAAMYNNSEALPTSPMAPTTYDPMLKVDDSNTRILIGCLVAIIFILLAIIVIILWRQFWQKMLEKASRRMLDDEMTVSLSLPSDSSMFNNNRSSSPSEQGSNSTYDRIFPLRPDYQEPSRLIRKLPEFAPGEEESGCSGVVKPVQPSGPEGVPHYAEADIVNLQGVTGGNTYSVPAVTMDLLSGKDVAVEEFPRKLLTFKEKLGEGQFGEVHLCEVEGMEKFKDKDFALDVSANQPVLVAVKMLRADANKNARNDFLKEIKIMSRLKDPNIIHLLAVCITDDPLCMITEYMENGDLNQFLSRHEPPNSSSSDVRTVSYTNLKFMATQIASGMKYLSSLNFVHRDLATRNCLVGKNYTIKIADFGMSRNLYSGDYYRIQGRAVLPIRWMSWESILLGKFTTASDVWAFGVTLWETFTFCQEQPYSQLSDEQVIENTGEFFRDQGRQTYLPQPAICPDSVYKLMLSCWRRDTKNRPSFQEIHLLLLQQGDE

[7] = target: Dual specificity tyrosine-phosphorylation-regulated kinase 1B (Homo sapiens) (UniProt Q9Y463); experiment: Binding affinity to wild-type human full length DYRK1B (M1 to S629 residues) expressed in bacterial expression system assessed as residual binding level at 10 uM by Kinomescan method relative to control
[8] = system: Epidermal growth factor receptor (Homo sapiens), P00533 [L858R]; experiment: Binding affinity to human partial length EGFR L858R mutant (R669 to V1011 residues) expressed in bacterial expression system assessed as residual binding level at 10 uM by Kinomescan method relative to control
[9] = system: Epidermal growth factor receptor (Homo sapiens), P00533 [L858R,T790M]; experiment: Binding affinity to human partial length EGFR L858R/T790M double mutant (R669 to V1011 residues) expressed in mammalian expression system assessed as residual binding level at 10 uM by Kinomescan method relative to control
[10] = target: Fibroblast growth factor receptor 2 (Homo sapiens) (UniProt P21802); experiment: Binding affinity to wild-type human partial length FGFR2 (D457 to E769 residues) expressed in bacterial expression system assessed as residual binding level at 10 uM by Kinomescan method relative to control
[11] = system: Receptor-type tyrosine-protein kinase FLT3 (Homo sapiens), P36888 [D835Y]; experiment: Binding affinity to human partial length FLT3 D835Y mutant (Q580 to Y969 residues) expressed in bacterial expression system assessed as residual binding level at 10 uM by Kinomescan method relative to control
[12] = target: Inhibitor of nuclear factor kappa-B kinase subunit alpha (Homo sapiens) (UniProt O15111); experiment: Binding affinity to wild-type human full length IKK-alpha (M1 to E745 residues) expressed in mammalian expression system assessed as residual binding level at 10 uM by Kinomescan method relative to control
[13] = target: LIM domain kinase 2 (Homo sapiens) (UniProt P53671); experiment: Binding affinity to wild-type human full length LIMK2 (M1 to P638 residues) expressed in bacterial expression system assessed as residual binding level at 10 uM by Kinomescan method relative to control
[14] = target: Mitogen-activated protein kinase kinase kinase kinase 2 (Homo sapiens) (UniProt Q12851); experiment: Binding affinity to wild-type human partial length MAP4K2 (M1 to G318 residues) expressed in mammalian expression system assessed as residual binding level at 10 uM by Kinomescan method relative to control
[15] = target: Misshapen-like kinase 1 (Homo sapiens) (UniProt Q8N4C8); experiment: Binding affinity to wild-type human partial length MINK (M1 to K312 residues) expressed in mammalian expression system assessed as residual binding level at 10 uM by Kinomescan method relative to control
[16] = target: Mitogen-activated protein kinase kinase kinase 10 (Homo sapiens) (UniProt Q02779); experiment: Binding affinity to wild-type human partial length MLK2 (V52 to W380 residues) expressed in bacterial expression system assessed as residual binding level at 10 uM by Kinomescan method relative to control
Sequence of Mitogen-activated protein kinase kinase kinase 10 (Homo sapiens) (Q02779 whole entry, looked up, the tested form may be a part): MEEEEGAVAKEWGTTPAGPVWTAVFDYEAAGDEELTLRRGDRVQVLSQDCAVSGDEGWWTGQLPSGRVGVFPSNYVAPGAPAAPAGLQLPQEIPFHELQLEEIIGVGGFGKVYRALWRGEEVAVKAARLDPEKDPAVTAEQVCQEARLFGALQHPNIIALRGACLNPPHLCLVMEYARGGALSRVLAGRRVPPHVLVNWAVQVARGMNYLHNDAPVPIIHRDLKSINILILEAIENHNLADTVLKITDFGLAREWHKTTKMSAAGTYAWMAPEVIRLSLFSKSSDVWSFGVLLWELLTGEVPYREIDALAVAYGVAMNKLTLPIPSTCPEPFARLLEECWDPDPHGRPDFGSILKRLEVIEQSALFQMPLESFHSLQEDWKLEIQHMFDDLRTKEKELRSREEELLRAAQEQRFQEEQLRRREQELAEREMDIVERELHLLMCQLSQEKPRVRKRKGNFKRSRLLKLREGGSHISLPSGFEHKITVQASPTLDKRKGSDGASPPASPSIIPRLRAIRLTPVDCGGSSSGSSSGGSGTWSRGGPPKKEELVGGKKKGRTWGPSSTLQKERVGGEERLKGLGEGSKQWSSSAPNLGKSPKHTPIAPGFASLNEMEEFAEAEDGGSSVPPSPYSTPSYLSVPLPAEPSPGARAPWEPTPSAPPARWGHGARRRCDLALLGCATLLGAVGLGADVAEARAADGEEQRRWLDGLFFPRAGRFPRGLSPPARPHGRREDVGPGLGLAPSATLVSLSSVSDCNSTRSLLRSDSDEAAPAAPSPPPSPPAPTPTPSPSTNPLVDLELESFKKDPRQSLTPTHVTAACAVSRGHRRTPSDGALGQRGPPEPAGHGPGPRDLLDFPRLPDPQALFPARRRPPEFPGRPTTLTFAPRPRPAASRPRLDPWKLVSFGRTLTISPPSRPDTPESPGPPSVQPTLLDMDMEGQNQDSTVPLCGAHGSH

[17] = target: Serine/threonine-protein kinase Nek4 (Homo sapiens) (UniProt P51957); experiment: Binding affinity to wild-type human full length NEK4 (M1 to F841 residues) expressed in mammalian expression system assessed as residual binding level at 10 uM by Kinomescan method relative to control
Sequence of Serine/threonine-protein kinase Nek4 (Homo sapiens) (P51957 whole entry, looked up, the tested form may be a part): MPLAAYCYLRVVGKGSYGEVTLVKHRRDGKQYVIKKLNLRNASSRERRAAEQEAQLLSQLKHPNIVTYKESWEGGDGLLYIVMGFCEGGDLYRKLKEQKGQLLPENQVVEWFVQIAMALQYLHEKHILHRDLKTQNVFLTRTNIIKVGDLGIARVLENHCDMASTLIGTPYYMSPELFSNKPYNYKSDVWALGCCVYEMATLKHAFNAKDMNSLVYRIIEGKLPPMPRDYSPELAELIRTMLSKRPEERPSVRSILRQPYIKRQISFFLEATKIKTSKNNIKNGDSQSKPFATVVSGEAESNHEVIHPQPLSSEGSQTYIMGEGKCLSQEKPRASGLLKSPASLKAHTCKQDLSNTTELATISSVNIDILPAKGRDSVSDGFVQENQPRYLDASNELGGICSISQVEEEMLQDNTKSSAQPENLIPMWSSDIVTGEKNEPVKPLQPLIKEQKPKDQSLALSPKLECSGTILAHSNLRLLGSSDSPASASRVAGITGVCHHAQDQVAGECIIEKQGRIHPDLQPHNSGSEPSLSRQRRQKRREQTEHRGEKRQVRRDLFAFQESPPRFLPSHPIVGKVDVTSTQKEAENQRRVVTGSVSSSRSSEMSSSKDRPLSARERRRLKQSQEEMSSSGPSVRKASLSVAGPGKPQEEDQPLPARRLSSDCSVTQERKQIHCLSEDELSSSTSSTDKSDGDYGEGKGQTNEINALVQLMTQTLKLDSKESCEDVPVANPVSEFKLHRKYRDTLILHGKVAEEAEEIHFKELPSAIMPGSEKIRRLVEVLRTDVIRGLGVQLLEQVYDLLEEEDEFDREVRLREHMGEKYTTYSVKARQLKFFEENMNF

[18] = target: Serine/threonine-protein kinase NIM1 (Homo sapiens) (UniProt Q8IY84); experiment: Binding affinity to wild-type human partial length NIM1 (Q44 to N355 residues) expressed in mammalian expression system assessed as residual binding level at 10 uM by Kinomescan method relative to control
Sequence of Serine/threonine-protein kinase NIM1 (Homo sapiens) (Q8IY84 whole entry, the tested form may be a part): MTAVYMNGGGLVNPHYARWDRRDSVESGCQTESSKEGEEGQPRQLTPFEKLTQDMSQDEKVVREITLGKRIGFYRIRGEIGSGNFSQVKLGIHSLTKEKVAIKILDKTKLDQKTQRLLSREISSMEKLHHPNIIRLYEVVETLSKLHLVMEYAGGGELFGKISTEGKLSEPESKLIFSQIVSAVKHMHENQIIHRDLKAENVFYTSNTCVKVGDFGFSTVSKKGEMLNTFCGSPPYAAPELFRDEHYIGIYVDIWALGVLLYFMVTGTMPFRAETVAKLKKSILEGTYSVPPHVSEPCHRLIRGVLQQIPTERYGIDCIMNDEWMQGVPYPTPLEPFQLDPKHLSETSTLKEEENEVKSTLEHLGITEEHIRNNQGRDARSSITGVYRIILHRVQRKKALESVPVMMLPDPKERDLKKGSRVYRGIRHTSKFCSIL

[19] = target: Mitogen-activated protein kinase 13 (Homo sapiens) (UniProt O15264); experiment: Binding affinity to wild-type human full length p38-delta (M1 to L365 residues) expressed in bacterial expression system assessed as residual binding level at 10 uM by Kinomescan method relative to control
Sequence of Mitogen-activated protein kinase 13 (Homo sapiens) (O15264 whole entry, the tested form may be a part, canonical isoform): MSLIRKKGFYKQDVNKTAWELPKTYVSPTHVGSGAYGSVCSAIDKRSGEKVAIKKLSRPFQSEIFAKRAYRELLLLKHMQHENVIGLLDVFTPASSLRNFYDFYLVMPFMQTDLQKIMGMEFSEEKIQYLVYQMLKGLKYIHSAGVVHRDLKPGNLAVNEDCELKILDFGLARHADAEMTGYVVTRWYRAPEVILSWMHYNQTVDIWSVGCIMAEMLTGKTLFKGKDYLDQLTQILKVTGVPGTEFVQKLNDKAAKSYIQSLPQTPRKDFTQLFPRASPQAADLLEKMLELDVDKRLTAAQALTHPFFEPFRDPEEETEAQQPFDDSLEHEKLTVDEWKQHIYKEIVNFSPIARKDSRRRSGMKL

[20] = system: Phosphatidylinositol 4,5-bisphosphate 3-kinase catalytic subunit alpha isoform (Homo sapiens), P42336 [H1047Y]; experiment: Binding affinity to human partial length PIK3CA H1047Y mutant (R108 to N1068 residues) expressed in mammalian expression system assessed as residual binding level at 10 uM by Kinomescan method relative to control
Sequence of Phosphatidylinositol 4,5-bisphosphate 3-kinase catalytic subunit alpha isoform (Homo sapiens), P42336 [H1047Y] (P42336 whole entry H1047Y, the tested form may be a part, canonical isoform): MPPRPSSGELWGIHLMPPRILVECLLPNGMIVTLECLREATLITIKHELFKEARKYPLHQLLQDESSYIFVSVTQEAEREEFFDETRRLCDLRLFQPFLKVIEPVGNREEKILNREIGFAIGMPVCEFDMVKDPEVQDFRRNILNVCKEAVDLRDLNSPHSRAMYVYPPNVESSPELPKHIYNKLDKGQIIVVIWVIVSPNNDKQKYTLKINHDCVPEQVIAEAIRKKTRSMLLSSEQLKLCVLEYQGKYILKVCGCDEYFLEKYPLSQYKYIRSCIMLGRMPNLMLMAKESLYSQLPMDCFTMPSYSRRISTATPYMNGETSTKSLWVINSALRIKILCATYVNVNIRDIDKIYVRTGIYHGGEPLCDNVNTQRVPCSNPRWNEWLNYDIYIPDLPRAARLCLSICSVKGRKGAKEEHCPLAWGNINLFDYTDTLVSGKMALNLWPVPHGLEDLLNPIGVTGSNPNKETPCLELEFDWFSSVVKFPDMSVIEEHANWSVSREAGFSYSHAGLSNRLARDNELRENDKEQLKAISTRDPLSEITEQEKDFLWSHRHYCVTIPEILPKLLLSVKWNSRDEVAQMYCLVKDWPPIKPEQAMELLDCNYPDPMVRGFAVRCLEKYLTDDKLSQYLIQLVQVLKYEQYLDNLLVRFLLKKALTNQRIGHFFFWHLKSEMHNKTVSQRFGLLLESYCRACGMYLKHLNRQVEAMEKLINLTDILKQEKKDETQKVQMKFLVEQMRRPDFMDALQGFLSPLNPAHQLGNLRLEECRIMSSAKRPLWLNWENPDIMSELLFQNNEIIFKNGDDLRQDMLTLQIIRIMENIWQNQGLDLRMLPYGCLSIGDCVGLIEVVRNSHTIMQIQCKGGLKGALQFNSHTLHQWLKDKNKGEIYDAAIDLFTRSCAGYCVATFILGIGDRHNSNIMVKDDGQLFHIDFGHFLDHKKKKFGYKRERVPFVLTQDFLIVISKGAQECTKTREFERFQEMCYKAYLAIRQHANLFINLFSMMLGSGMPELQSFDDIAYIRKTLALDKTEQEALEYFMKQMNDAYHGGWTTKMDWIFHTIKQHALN

[21] = target: Phosphatidylinositol 5-phosphate 4-kinase type-2 beta (Homo sapiens) (UniProt P78356); experiment: Binding affinity to wild-type human full length PIP5K2B (M1 to T416 residues) expressed in bacterial expression system assessed as residual binding level at 10 uM by Kinomescan method relative to control
[22] = target: Ribosomal protein S6 kinase alpha-5 (Homo sapiens) (UniProt O75582); experiment: Binding affinity to wild-type human partial length C-terminal RPS6KA5 kinase domain 2 (V390 to T718 residues) expressed in bacterial expression system assessed as residual binding level at 10 uM by Kinomescan method relative to control
[23] = target: Serine/threonine-protein kinase Sgk1 (Homo sapiens) (UniProt O00141); experiment: Binding affinity to wild-type human partial length SGK (I60 to L431 residues) expressed in mammalian expression system assessed as residual binding level at 10 uM by Kinomescan method relative to control
[24] = target: Serine/threonine-protein kinase 35 (Homo sapiens) (UniProt Q8TDR2); experiment: Binding affinity to wild-type human partial length STK35 (G182 to A534 residues) expressed in bacterial expression system assessed as residual binding level at 10 uM by Kinomescan method relative to control
Sequence of Serine/threonine-protein kinase 35 (Homo sapiens) (Q8TDR2 whole entry, the tested form may be a part): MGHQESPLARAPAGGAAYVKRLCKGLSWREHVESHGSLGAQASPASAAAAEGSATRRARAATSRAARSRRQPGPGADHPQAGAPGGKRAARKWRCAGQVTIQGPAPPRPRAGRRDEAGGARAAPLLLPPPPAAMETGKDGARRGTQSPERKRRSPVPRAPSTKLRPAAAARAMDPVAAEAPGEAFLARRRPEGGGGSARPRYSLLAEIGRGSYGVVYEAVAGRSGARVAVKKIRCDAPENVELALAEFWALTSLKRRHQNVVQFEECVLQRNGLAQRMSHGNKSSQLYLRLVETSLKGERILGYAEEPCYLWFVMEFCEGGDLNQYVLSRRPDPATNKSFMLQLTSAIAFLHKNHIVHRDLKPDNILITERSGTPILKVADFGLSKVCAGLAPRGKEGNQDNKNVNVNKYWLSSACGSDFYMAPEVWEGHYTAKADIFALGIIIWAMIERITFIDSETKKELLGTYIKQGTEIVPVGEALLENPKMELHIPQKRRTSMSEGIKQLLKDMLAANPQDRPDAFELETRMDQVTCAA

MDR1 = experiment: in vitro; conditions: dog, MDCK-MDR1
Description: Apparent permeability across basolateral to apical side in MDCK2-MDR1 cells by HPLC analysis

Structure (SMILES): O=C(Nc1cc(-c2cn(CCNc3c4c(nc5ccccc35)CCCC4)nn2)ccn1)Nc1cccc2c1C1CCCCN1C2=O (racemic)
- Activity [1]: 1.8%
- Activity [2]: 49%
- Activity [3]: 100%
- Activity [4]: 70%
- Activity [5]: 0.95%
- Activity [6]: 4.2%
- Activity [7]: 3.7%
- Activity [8]: 80%
- Activity [9]: 87%
- Activity [10]: 21%
- Activity [11]: 1.1%
- Activity [12]: 53%
- Activity [13]: 60%
- Activity [14]: 9.2%
- Activity [15]: 28%
- Activity [16]: 58%
- Activity [17]: 98%
- Activity [18]: 83%
- Activity [19]: 73%
- Activity [20]: 86%
- Activity [21]: 16%
- Activity [22]: 96%
- Activity [23]: 0.3%
- Activity [24]: 97%
- Papp B→A (MDR1): 16.8 ×10⁻⁶ cm/s
